Assay results from patent US9758561B2 (priority 2014, dated 2017).
≈ marks a conversion by molar mass, not a printed value. Like-named read-outs stand apart in the source and are kept apart here.

How the values were obtained:
[1] = biological target: T1, human GIP receptor (Homo sapiens, UniProt P48546); test: cAMP response of HEK-293 cells stably expressing human GIP receptor (HTRF); type: cell-based; conditions: Table 7; comparison of residue in position 14; read-out: EC50 hGIP-1
T1 construct: expressed in transfected cells; host or cells: HEK-293
T1 sequence (P48546 22-466): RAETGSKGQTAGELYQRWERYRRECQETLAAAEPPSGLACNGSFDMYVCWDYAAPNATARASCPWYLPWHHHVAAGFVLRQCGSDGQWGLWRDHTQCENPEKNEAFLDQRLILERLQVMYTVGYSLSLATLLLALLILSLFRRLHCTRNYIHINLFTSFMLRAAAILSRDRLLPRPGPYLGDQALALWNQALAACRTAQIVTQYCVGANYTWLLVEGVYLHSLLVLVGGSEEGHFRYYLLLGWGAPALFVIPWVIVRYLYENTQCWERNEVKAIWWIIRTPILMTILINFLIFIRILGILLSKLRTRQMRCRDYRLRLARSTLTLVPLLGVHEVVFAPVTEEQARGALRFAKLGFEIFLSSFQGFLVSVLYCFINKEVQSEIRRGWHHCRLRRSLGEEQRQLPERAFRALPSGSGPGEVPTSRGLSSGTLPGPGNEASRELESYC
Experimental: (§1) For preparation, cells were split into T175 culture flasks and grown overnight to near confluency in medium (DMEM/10% FBS). Medium was then removed and cells washed with PBS lacking calcium and magnesium, followed by proteinase treatment with accutase (Sigma-Aldrich cat. no. A6964). Detached cells were washed and resuspended in assay buffer (1×HBSS; 20 mM HEPES, 0.1% BSA, 2 mM IBMX) and cellular density determined. They were then diluted to 400000 cells/ml and 25 μl-aliquots dispensed into the wells of 96-well plates. For measurement, 25 μl of test compound in assay buffer was added to the wells, followed by incubation for 30 minutes at room temperature. […] Potencies of peptidic compounds at the GLP-1, glucagon and GIP receptors were determined by exposing cells expressing human glucagon receptor (hGlucagon R), human GIP receptor (hGIP-R) or human GLP-1 receptor (hGLP-1R) to the listed compounds at increasing concentrations and measuring the formed cAMP as described in Methods.

[2] = biological target: T2, human glucagon receptor (Homo sapiens, UniProt P47871); test: cAMP response of HEK-293 cells stably expressing human glucagon receptor (HTRF); type: cell-based; conditions: read-out: EC50 hGlucagon-R
T2 construct: expressed in transfected cells; host or cells: HEK-293
Experimental: as §1

[3] = biological target: T3, human GLP-1 receptor (Homo sapiens, UniProt P43220); test: cAMP response of HEK-293 cells stably expressing human GLP-1 receptor (HTRF); type: cell-based; conditions: read-out: EC50 hGLP-1R
T3 construct: expressed in transfected cells; host or cells: HEK-293
Experimental: as §1

[4] = Stability testing in solution, 7 days at 40° C. (HPLC-UV); type: physicochemical; conditions: for Stability pH 4.5: pH 4.5, 7 days at 40° C. in solution; for Stability pH 7.4: pH 7.4, 7 days at 40° C. in solution
Experimental: After that time course, the sample was centrifuged for 20 min at 4500 rpm and 0.2 μL of the supernatant were analysed with HPLC-UV.
For determination of the amount of the remaining peptide, the peak areas of the target compound at t0 and t7 were compared, resulting in “% remaining peptide”, following the equation % remaining peptide=[(peak area peptide t7)×100]/peak area peptide t0.
The stability is expressed as “% remaining peptide”.

[5] = Solubility testing in buffer (HPLC-UV); type: physicochemical
Experimental: Prior to the testing of solubility and stability of a peptide batch, its purity (HPLC-UV) was determined. […] Therefore, solutions from solid samples were prepared in different buffer systems with a concentration of 10 mg/mL compound based on the previously determined % purity. HPLC-UV was performed after 2 h of gentle agitation from the supernatant, which was obtained by 20 min of centrifugation at 4500 rpm. […] This analysis also served as starting point (t0) for the stability testing.

[6] = Table 7, comparison of residue in position 14
[7] = pH 4.5, target concentration 10 mg/ml, read-out: solubility pH 4.5
[8] = pH 7.4, target concentration 10 mg/ml, read-out: solubility pH 7.4

T3 sequence (P43220 24-463): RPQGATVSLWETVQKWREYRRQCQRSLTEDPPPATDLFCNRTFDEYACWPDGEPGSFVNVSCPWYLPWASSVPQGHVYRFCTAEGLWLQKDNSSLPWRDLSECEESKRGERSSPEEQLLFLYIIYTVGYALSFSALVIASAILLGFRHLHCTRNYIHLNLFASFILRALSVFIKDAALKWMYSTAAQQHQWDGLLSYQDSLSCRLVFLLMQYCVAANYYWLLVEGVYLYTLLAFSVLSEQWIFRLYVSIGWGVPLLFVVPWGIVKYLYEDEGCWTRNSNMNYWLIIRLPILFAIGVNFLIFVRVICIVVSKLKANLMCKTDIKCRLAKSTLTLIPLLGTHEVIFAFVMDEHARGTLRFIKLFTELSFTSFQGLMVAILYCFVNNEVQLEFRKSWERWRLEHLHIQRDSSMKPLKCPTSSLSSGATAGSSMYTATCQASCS
T2 sequence (P47871 26-477): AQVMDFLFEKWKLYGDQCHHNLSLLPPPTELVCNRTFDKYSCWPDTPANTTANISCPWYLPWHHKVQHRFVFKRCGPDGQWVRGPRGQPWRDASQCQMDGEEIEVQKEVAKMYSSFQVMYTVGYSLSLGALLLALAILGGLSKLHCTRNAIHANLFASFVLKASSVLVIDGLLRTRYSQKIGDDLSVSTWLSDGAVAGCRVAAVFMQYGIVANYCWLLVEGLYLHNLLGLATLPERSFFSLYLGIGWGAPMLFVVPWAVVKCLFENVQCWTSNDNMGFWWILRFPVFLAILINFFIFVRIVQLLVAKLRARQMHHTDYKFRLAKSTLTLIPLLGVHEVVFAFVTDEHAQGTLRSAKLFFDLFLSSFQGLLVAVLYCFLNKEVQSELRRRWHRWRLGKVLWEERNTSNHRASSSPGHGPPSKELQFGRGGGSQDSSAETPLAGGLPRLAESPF

| SMILES | EC50 [1] [pM] | EC50 [2, 6] [pM] | EC50 [3, 6] [pM] | Stability pH 4.5 [4] [% remaining peptide] | Stability pH 7.4 [4] [% remaining peptide] | EC50 ([3]; Table 6) [pM] | solubility at 2 h [5, 7] [µg/mL] | solubility at 2 h [5, 8] [µg/mL] | EC50 ([2]; Table 8, comparison Aib vs. Lys in position 27) [pM] |
| --- | --- | --- | --- | --- | --- | --- | --- | --- | --- |
| CCCCCCCCCCCCCCCC(=O)N[C@@H](CCC(=O)N[C@@H](CCC(=O)NCCCC[C@H](NC(=O)[C@H](CCC(N)=O)NC(=O)[C@H](CCCCN)NC(=O)[C@H](CO)NC(=O)[C@H](CC(C)C)NC(=O)[C@H](CC(=O)O)NC(=O)[C@H](CO)NC(=O)[C@@H](NC(=O)[C@H](Cc1ccccc1)NC(=O)[C@@H](NC(=O)CNC(=O)[C@H](CCC(N)=O)NC(=O)[C@@H](CO)NC(=O)[C@@H](N)Cc1c[nH]cn1)[C@@H](C)O)[C@@H](C)O)C(=O)N[C@@H](CC(=O)O)C(=O)N[C@@H](CCC(=O)O)C(=O)N[C@@H](CCC(=O)O)C(=O)N[C@@H](C)C(=O)N[C@@H](C)C(=O)N[C@@H](CCCNC(=N)N)C(=O)N[C@@H](CC(C)C)C(=O)N[C@@H](Cc1ccccc1)C(=O)N[C@H](C(=O)N[C@@H](CCC(=O)O)C(=O)N[C@@H](Cc1c[nH]c2ccccc12)C(=O)N[C@@H](CC(C)C)C(=O)N[C@@H](CCCCN)C(=O)N[C@@H](C)C(=O)NCC(=O)NCC(=O)N1CCC[C@H]1C(=O)N[C@@H](CO)C(=O)N[C@@H](CO)C(=O)NCC(=O)N[C@@H](C)C(=O)N1CCC[C@H]1C(=O)N1CCC[C@H]1C(=O)N1CCC[C@H]1C(=O)N[C@@H](CO)C(N)=O)[C@@H](C)CC)C(=O)O)C(=O)O [SEQ ID NO: 32, H-dSer-Q-G-T-F-T-S-D-L-S-K-Q-K(γE-γE-x53)-DEEAARLFIEWLKAGGPSSGAPPPS-NH2, reference compound] | 565 | 5.5 | 1.9 | – | – | – | – | – | – |
| CCCCCCCCCCCCCCCC(=O)N[C@@H](CCC(=O)N[C@@H](CCC(=O)NCCCC[C@H](NC(=O)[C@H](CCC(N)=O)NC(=O)[C@H](CCCCN)NC(=O)[C@H](CO)NC(=O)[C@H](CC(C)C)NC(=O)[C@H](CC(=O)O)NC(=O)[C@H](CO)NC(=O)[C@@H](NC(=O)[C@H](Cc1ccccc1)NC(=O)[C@@H](NC(=O)CNC(=O)[C@H](Cc1c[nH]cn1)NC(=O)[C@@H](CO)NC(=O)[C@@H](N)Cc1c[nH]cn1)[C@@H](C)O)[C@@H](C)O)C(=O)N[C@@H](CC(=O)O)C(=O)N[C@@H](CCC(=O)O)C(=O)N[C@@H](CCC(=O)O)C(=O)N[C@@H](C)C(=O)N[C@@H](C)C(=O)N[C@@H](CCCNC(=N)N)C(=O)N[C@@H](CC(C)C)C(=O)N[C@@H](Cc1ccccc1)C(=O)N[C@H](C(=O)N[C@@H](CCC(=O)O)C(=O)N[C@@H](Cc1c[nH]c2ccccc12)C(=O)N[C@@H](CC(C)C)C(=O)NC(C)(C)C(=O)N[C@@H](CCCCN)C(=O)N[C@H](C)C(=O)NCC(=O)N1CCC[C@H]1C(=O)N[C@@H](CO)C(=O)N[C@@H](CO)C(=O)NCC(=O)N[C@@H](C)C(=O)N1CCC[C@H]1C(=O)N1CCC[C@H]1C(=O)N1CCC[C@H]1C(=O)N[C@@H](CO)C(N)=O)[C@@H](C)CC)C(=O)O)C(=O)O [SEQ ID NO: 26, H-dSer-H-G-T-F-T-S-D-L-S-K-Q-K(γE-γE-x53)-D-E-E-A-A-R-L-F-I-E-W-L-Aib-K-dAla-G-P-S-S-G-A-P-P-P-S-NH2] | – | – | – | 92.7 | 96.6 | 2 | 6800 (≈ 1460 µM) | 6700 (≈ 1440 µM) | – |
| CCCCCCCCCCCCCCCC(=O)N[C@@H](CCC(=O)N[C@@H](CCC(=O)NCCCC[C@H](NC(=O)[C@H](CCC(N)=O)NC(=O)[C@H](CCCCN)NC(=O)[C@H](CO)NC(=O)[C@H](CC(C)C)NC(=O)[C@H](CC(=O)O)NC(=O)[C@H](CO)NC(=O)[C@@H](NC(=O)[C@H](Cc1ccccc1)NC(=O)[C@@H](NC(=O)CNC(=O)[C@H](CCC(N)=O)NC(=O)[C@@H](CO)NC(=O)[C@@H](N)Cc1c[nH]cn1)[C@@H](C)O)[C@@H](C)O)C(=O)N[C@@H](CC(=O)O)C(=O)N[C@@H](CCC(=O)O)C(=O)N[C@@H](CCC(=O)O)C(=O)N[C@@H](C)C(=O)N[C@@H](C)C(=O)N[C@@H](CCCNC(=N)N)C(=O)N[C@@H](CC(C)C)C(=O)N[C@@H](Cc1ccccc1)C(=O)N[C@H](C(=O)N[C@@H](CCC(=O)O)C(=O)N[C@@H](Cc1c[nH]c2ccccc12)C(=O)N[C@@H](CC(C)C)C(=O)NC(C)(C)C(=O)N[C@@H](C)C(=O)N[C@H](C)C(=O)NCC(=O)N1CCC[C@H]1C(=O)N[C@@H](CO)C(=O)N[C@@H](CO)C(=O)NCC(=O)N[C@@H](C)C(=O)N1CCC[C@H]1C(=O)N1CCC[C@H]1C(=O)N1CCC[C@H]1C(=O)N[C@@H](CO)C(N)=O)[C@@H](C)CC)C(=O)O)C(=O)O [SEQ ID NO: 12, H-dSer-Q-G-T-F-T-S-D-L-S-K-Q-K(γE-γE-x53)-D-E-E-A-A-R-L-F-I-E-W-L-Aib-A-dAla-G-P-S-S-G-A-P-P-P-S-NH2] | – | – | – | 85.6 | 90.6 | – | 2000 (≈ 435 µM) | > 8000 | – |
| CCCCCCCCCCCCCCCC(=O)N[C@@H](CCC(=O)N[C@@H](CCC(=O)NCCCC[C@H](NC(=O)[C@H](CCC(N)=O)NC(=O)[C@H](CCCCN)NC(=O)[C@H](CO)NC(=O)[C@H](CC(C)C)NC(=O)[C@H](CC(=O)O)NC(=O)[C@H](CO)NC(=O)[C@@H](NC(=O)[C@H](Cc1ccccc1)NC(=O)[C@@H](NC(=O)CNC(=O)[C@H](CCC(N)=O)NC(=O)[C@@H](CO)NC(=O)[C@@H](N)Cc1c[nH]cn1)[C@@H](C)O)[C@@H](C)O)C(=O)N[C@@H](CC(=O)O)C(=O)N[C@@H](CCC(=O)O)C(=O)N[C@@H](CCC(=O)O)C(=O)N[C@@H](C)C(=O)N[C@@H](C)C(=O)N[C@@H](CCCNC(=N)N)C(=O)N[C@@H](CC(C)C)C(=O)N[C@@H](Cc1ccccc1)C(=O)N[C@H](C(=O)N[C@@H](CCC(=O)O)C(=O)N[C@@H](Cc1c[nH]c2ccccc12)C(=O)N[C@@H](CC(C)C)C(=O)NC(C)(C)C(=O)N[C@@H](CCCCN)C(=O)N[C@H](C)C(=O)NCC(=O)N1CCC[C@H]1C(=O)N[C@@H](CO)C(=O)N[C@@H](CO)C(=O)NCC(=O)N[C@@H](C)C(=O)N1CCC[C@H]1C(=O)N1CCC[C@H]1C(=O)N1CCC[C@H]1C(=O)N[C@@H](CO)C(N)=O)[C@@H](C)CC)C(=O)O)C(=O)O [SEQ ID NO: 24, H-dSer-Q-G-T-F-T-S-D-L-S-K-Q-K(γE-γE-x53)-D-E-E-A-A-R-L-F-I-E-W-L-Aib-K-dAla-G-P-S-S-G-A-P-P-P-S-NH2] | – | – | – | 81.8 | 95.4 | 2.4 | > 8000 | 7000 (≈ 1500 µM) | – |
| CCCCCCCCCCCCCCCC(=O)N[C@@H](CCC(=O)N[C@@H](CCC(=O)NCCCC[C@H](NC(=O)[C@H](CCC(N)=O)NC(=O)[C@H](CCCCN)NC(=O)[C@H](CO)NC(=O)[C@H](CC(C)C)NC(=O)[C@H](CC(=O)O)NC(=O)[C@H](CO)NC(=O)[C@@H](NC(=O)[C@H](Cc1ccccc1)NC(=O)[C@@H](NC(=O)CNC(=O)[C@H](Cc1c[nH]cn1)NC(=O)[C@@H](CO)NC(=O)[C@@H](N)Cc1c[nH]cn1)[C@@H](C)O)[C@@H](C)O)C(=O)N[C@@H](CCC(=O)O)C(=O)N[C@@H](CCC(=O)O)C(=O)N[C@@H](CCC(=O)O)C(=O)N[C@@H](C)C(=O)N[C@@H](C)C(=O)N[C@@H](CCCNC(=N)N)C(=O)N[C@@H](CC(C)C)C(=O)N[C@@H](Cc1ccccc1)C(=O)N[C@H](C(=O)N[C@@H](CCC(=O)O)C(=O)N[C@@H](Cc1c[nH]c2ccccc12)C(=O)N[C@@H](CC(C)C)C(=O)N[C@@H](CCCCN)C(=O)N[C@@H](C)C(=O)NCC(=O)NCC(=O)N1CCC[C@H]1C(=O)N[C@@H](CO)C(=O)N[C@@H](CO)C(=O)NCC(=O)N[C@@H](C)C(=O)N1CCC[C@H]1C(=O)N1CCC[C@H]1C(=O)N1CCC[C@H]1C(=O)N[C@@H](CO)C(N)=O)[C@@H](C)CC)C(=O)O)C(=O)O [SEQ ID NO: 30, H-dSer-H-G-T-F-T-S-D-L-S-K-Q-K(γE-γE-x53)-EEEAARLFIEWLKAGGPSSGAPPPS-NH2, reference compound] | – | – | – | – | – | – | – | – | 5.1 |
